Among the data in patent US20230059136A1, “THE COMPOUNDS AND COMPOSITIONS FOR TREATING CONDITIONS ASSOCIATED WITH NLRP ACTIVITY” (Novartis AG, priority 2018, published 2023) are IC50 values, retold here.

The first assay concerns IL-1β production in PMA-differentiated THP-1 cells. Briefly: IL-1β production in PMA-differentiated THP-1 cells stimulated with gramicidin (hTHP-1 assay containing 2% fetal bovine serum). In kind it is cell-based, human. As to conditions: Homo sapiens, THP-1, Table B1; 2% fetal bovine serum; class symbols; read-out: hTHP-1 IC50 (Average IC50 of compounds in hTHP-1 assay). In a few lines:
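THP-1 cells were differentiated with PMA 20 ng/ml for 16-18 h, then plated at 50,000 cells/well in RPMI with 2% FBS. They were preincubated 1 h with compound (100–0.0017 μM final, 0.37% DMSO), then stimulated with gramicidin 5 μM for 2 h. Supernatant IL-1β was measured by HTRF.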
The term IC50 denotes the concentration that gives 50% inhibition. Consider `CC(C)c1ccc(F)c(C(C)C)c1CC(=O)N=[S@@](N)(=O)c1cc(C(C)(C)O)cs1` [compound 88, (R)-N-(amino(4-(2-hydroxypropan-2-yl)thiophen-2-yl)(oxo)-λ^6-sulfanylidene)-2-(3-fluoro-2,6-diisopropylphenyl)acetamide], for which the IC50 lay in the range of 0.2 to 1 µM. Consider `CC(C)c1nc(-c2cccc(C(F)(F)F)c2)c(F)c(C(C)C)c1CC(=O)N=[S@@](N)(=O)c1cnc(C(C)(C)O)s1` [compound 89, (R)-N-(amino(2-(2-hydroxypropan-2-yl)thiazol-5-yl)(oxo)-λ^6-sulfanylidene)-2-(5-fluoro-2,4-diisopropyl-6-(3-(trifluoromethyl)phenyl)pyridin-3-yl)acetamide], for which the IC50 was 0.2 to 1 µM.

Staying with this assay, now noted: Homo sapiens, THP-1, Table B2; 2% fetal bovine serum; cells printed as numeric bound; read-out: hTHP-1 IC50 (Average IC50 of compounds in hTHP-1 assay).
`CC(C)c1cc(C#N)cc(C(C)C)c1CC(=O)N=[S@](=O)(NC#N)c1ncc(C(C)(C)O)s1` [Example 365]: the IC50 was above 30 µM.

For the compound `CC(C)c1cc(C#N)c(F)c(C(C)C)c1CC(=O)N=[S@@](=O)(NC#N)c1cnc([C@](C)(O)CO)s1` [Example 370, N-((R)-cyanamido(2-((R)-1,2-dihydroxypropan-2-yl)thiazol-5-yl)(oxo)-λ^6-sulfaneylidene)-2-(4-cyano-3-fluoro-2,6-diisopropylphenyl)acetamide], the IC50 is above 30 µM. In the case of `COc1ccc(C(C)(C)O)cc1[S@](=O)(=NC(=O)Cc1c(C(C)C)cc(C#N)cc1C(C)C)NC#N` [Example 377, (S)-N-(cyanamido(5-(2-hydroxypropan-2-yl)-2-methoxyphenyl)(oxo)-λ^6-sulfaneylidene)-2-(4-cyano-2,6-diisopropylphenyl)acetamide], the IC50 was above 30 µM.

On to `CC(C)c1cc2ccccc2c(C(C)C)c1CC(=O)N=[S@@](N)(=O)c1cnc(C(C)(C)O)s1` [Example 389, (R)-N-(amino(2-(2-hydroxypropan-2-yl)thiazol-5-yl) (oxo)-λ^6-sulfaneylidene)-2-(1,3-diisopropylnaphthalen-2-yl)acetamide], for which the IC50 was above 30 µM.

With `CC(C)c1cc(C(F)F)cc(C(C)C)c1CC(=O)N=S(=O)(NC(=O)Cc1c(C(C)C)cc(C(F)F)cc1C(C)C)c1ccc(CN(C)C)nc1` (stereo not drawn) [Example 390, 2-(4-(Difluoromethyl)-2,6-diisopropylphenyl)-N-((2-(4-(difluoromethyl)-2,6-diisopropylphenyl)acetamido)(6-((dimethylamino)methyl)pyridin-3-yl)(oxo)-λ^6-sulfaneylidene)acetamide], the IC50 was above 30 µM. On the same count and under the same terms, the value for `CC(C)c1cc2c(cnn2C)c(C(C)C)c1CC(=O)N=S(N)(=O)c1ncc(C(C)(C)O)s1` (stereo not drawn) [Example 391, N-(Amino(5-(2-hydroxypropan-2-yl)thiazol-2-yl)(oxo)-λ^6-sulfaneylidene)-2-(4,6-diisopropyl-1-methyl-1H-indazol-5-yl)acetamide] was above 30 µM; that for `CC(C)c1ncnc(C(C)C)c1CC(=O)N=S(N)(=O)c1cnc(C(C)(C)O)s1` (stereo not drawn) [Example 392, N-(amino(2-(2-hydroxypropan-2-yl)thiazol-5-yl)(oxo)-λ^6-sulfaneylidene)-2-(4,6-diisopropylpyrimidin-5-yl)acetamide] was above 30 µM; that for `CC(C)c1cc(C#N)c(F)c(C(C)C)c1CC(=O)N=S(=O)(NC(N)=O)c1cnc([C@](C)(O)CO)s1` (stereo partly drawn) [compound 355] was above 30 µM.

The same assay, now with this note: Homo sapiens, THP-1, Table B2; 2% fetal bovine serum; class symbols; read-out: hTHP-1 IC50 (Average IC50 of compounds in hTHP-1 assay).
As for `CC(C)c1cc(C#N)cc(C(C)C)c1CC(=O)N=[S@@](=O)(NC#N)c1ncc(C(C)(C)O)s1` [Example 364, (R)-N-(cyanamido(5-(2-hydroxypropan-2-yl)thiazol-2-yl) (oxo)-λ^6-sulfaneylidene)-2-(4-cyano-2,6-diisopropylphenyl) acetamide], the IC50 was 0.2 to 1 µM.

Take `CC(C)c1cc(C#N)cc(C(C)C)c1CC(=O)N=[S@@](=O)(NC#N)c1sc(C(C)(C)O)nc1CO` [Example 366, (R)-N-(cyanamido(4-(hydroxymethyl)-2-(2-hydroxypropan-2-yl)thiazol-5-yl)(oxo)-λ^6-sulfaneylidene)-2-(4-cyano-2,6-diisopropylphenyl)acetamide]: the IC50 fell in the range of 5 to 30 µM. On the same count and under the same terms, the value for `CC(C)c1cc(F)cc(C(C)C)c1CC(=O)N=[S@@](=O)(NC#N)c1sc(C(C)(C)O)nc1CO` [Example 368, (R)-N-(cyanamido(4-(hydroxymethyl)-2-(2-hydroxypropan-2-yl)thiazol-5-yl)(oxo)-λ^6-sulfaneylidene)-2-(4-fluoro-2,6-diisopropylphenyl)acetamide] was 0.04 to 0.2 µM. As for `CC(C)c1cc(F)cc(C(C)C)c1CC(=O)N=[S@](=O)(NC#N)c1sc(C(C)(C)O)nc1CO` [Example 369, (S)-N-(cyanamido(4-(hydroxymethyl)-2-(2-hydroxypropan-2-yl)thiazol-5-yl)(oxo)-λ^6-sulfaneylidene)-2-(4-fluoro-2,6-diisopropylphenyl)acetamide], the IC50 was 5 to 30 µM.

`CC(C)c1cc(C#N)c(F)c(C(C)C)c1CC(=O)N=S(=O)(NC#N)c1cnc(C(O)CO)s1` (stereo not drawn) [Example 372, N-(cyanamido(2-(1,2-dihydroxyethyl)thiazol-5-yl)(oxo)-λ^6-sulfaneylidene)-2-(4-cyano-3-fluoro-2,6-diisopropylphenyl)acetamide]: the IC50 lay within 5 to 30 µM. `CC(C)c1cc(C#N)cc(C(C)C)c1CC(=O)N=[S@](=O)(NC#N)c1sc(C(C)(C)O)nc1CCO` [Example 373, (S)-N-(cyanamido(4-(2-hydroxyethyl)-2-(2-hydroxypropan-2-yl)thiazol-5-yl)(oxo)-λ^6-sulfaneylidene)-2-(4-cyano-2,6-diisopropylphenyl)acetamide]: the IC50 fell in the range of 5 to 30 µM. On the same count and under the same terms, the value for `CC(C)c1cc(C#N)cc(C(C)C)c1CC(=O)N=[S@@](=O)(NC#N)c1sc(C(C)(C)O)nc1CCO` [Example 374, (R)-N-(cyanamido(4-(2-hydroxyethyl)-2-(2-hydroxypropan-2-yl)thiazol-5-yl)(oxo)-λ^6-sulfaneylidene)-2-(4-cyano-2,6-diisopropylphenyl)acetamide] was 0.04 to 0.2 µM; that for `CC(C)c1cc(C#N)cc(C(C)C)c1CC(=O)N=[S@](=O)(NC#N)c1nc(CO)c(C(C)(C)O)s1` [Example 375, (S)-N-(cyanamido(4-(hydroxymethyl)-5-(2-hydroxypropan-2-yl)thiazol-2-yl)(oxo)-λ^6-sulfaneylidene)-2-(4-cyano-2,6-diisopropylphenyl)acetamide] was 5 to 30 µM.

For the compound `CC(C)c1cc(C#N)cc(C(C)C)c1CC(=O)N=[S@@](=O)(NC#N)c1nc(CO)c(C(C)(C)O)s1` [Example 376, (R)-N-(cyanamido(4-(hydroxymethyl)-5-(2-hydroxypropan-2-yl)thiazol-2-yl)(oxo)-λ^6-sulfaneylidene)-2-(4-cyano-2,6-diisopropylphenyl)acetamide], the IC50 was 0.2 to 1 µM.

On to `COc1ccc(C(C)(C)O)cc1[S@@](=O)(=NC(=O)Cc1c(C(C)C)cc(C#N)cc1C(C)C)NC#N` [Example 378, (R)-N-(cyanamido(5-(2-hydroxypropan-2-yl)-2-methoxyphenyl)(oxo)-λ^6-sylfaneylidene)-2-(4-cyano-2,6-diisopropylphenyl)acetamide], for which the IC50 is 5 to 30 µM. Same read-out and setting: the value for `CNCc1ccc(S(N)(=O)=NC(=O)Cc2c(-c3ccccc3)ccc3c2CCC3)cc1` (stereo not drawn) [Example 379, N-(amino(4-((methylamino)methyl)phenyl)(oxo)-λ^6-sulfaneylidene)-2-(5-phenyl-2,3-dihydro-1H-inden-4-yl)acetamide] was 5 to 30 µM. Regarding `CCn1cc(F)c(S(N)(=O)=NC(=O)Cc2c(C(C)C)cc3c(c2C(C)C)COC3)n1` (stereo not drawn) [Example 393, N-(amino(1-ethyl-4-fluoro-1H-pyrazol-3-yl)(oxo)-λ^6-sulfaneylidene)-2-(4,6-diisopropyl-1,3-dihydroisobenzofuran-5-yl)acetamide], the IC50 is 1 to 5 µM. Still for that read-out and setting: the value for `CCn1cc(F)c(S(N)(=O)=NC(=O)Cc2c(C(C)C)cc3c(c2C(C)C)OC(F)(F)O3)n1` (stereo not drawn) [Example 394, N-(amino(1-ethyl-4-fluoro-1H-pyrazol-3-yl)(oxo)-λ^6-sulfaneylidene)-2-(2,2-difluoro-4,6-diisopropylbenzo[d][1,3]dioxol-5-yl)acetamide] was 0.2 to 1 µM. On the same count and under the same terms, with `CC(C)c1c2c(c3c(c1CC(=O)N=S(N)(=O)c1sc(C(C)(C)O)cc1F)CCC3)COC2` (stereo not drawn) [Example 395, N-(Amino(3-fluoro-5-(2-hydroxypropan-2-yl)thiophen-2-yl) (oxo)-λ^6-sulfaneylidene)-2-(4-isopropyl-3,6,7,8-tetrahydro-1H-indeno[4,5-c]furan-5-yl)acetamide] the figure was 0.2 to 1 µM; with `CC(C)c1cc(C#N)c(F)c(C(C)C)c1CC(=O)N=S(N)(=O)c1cnc(C(O)CO)s1` (stereo not drawn) [compound 382], 1 to 5 µM.

Staying with this assay, now noted: Homo sapiens, THP-1, read-out: hTHP-1 IC50 in 2% FBS, average IC50; hTHP-1 assay containing 2% fetal bovine serum.
`Cc1cc(C(F)(F)F)cc(O)c1CC(=O)N=S(N)(=O)c1ccccc1` (stereo not drawn) [Example 404, N-(amino(oxo)(phenyl)-λ^6-sulfaneylidene)-2-(2-hydroxy-6-methyl-4-(trifluoromethyl)phenyl)acetamide]: the IC50 lay within 5 to 30 µM.

For another assay the test system is unchanged. Description: hTHP-1 assay containing 10% fetal bovine serum (IL-1β production, gramicidin-stimulated THP-1 cells). The class given is cell-based, human. As to conditions: read-out: hTHP-1 IC50 in 10% FBS, average IC50. As to the method:
Activity key: <0.008 μM=“++++++”; ≥0.008 and <0.04 μM=“+++++”; ≥0.04 and <0.2 μM=“++++”; ≥0.2 and <1 μM=“+++”; ≥1 and <5 μM=“++”; ≥5 and <30 μM=“+”. ND=not determined.
For `CNCc1ccc(S(N)(=O)=NC(=O)Cc2c(-c3ccccc3)cc(F)cc2C(C)C)cc1` (single isomer, unassigned) [Example 413, (S) or (R)-N-(amino(4-((methylamino)methyl)phenyl) (oxo)-λ^6-sulfaneylidene)-2-(5-fluoro-3-isopropyl-[1,1′-biphenyl]-2-yl)acetamide], the IC50 fell in the range of 5 to 30 µM.
